The values below are quoted from earlier work in US20200095192A1, “BIODEGRADABLE DIETHANOLAMINE DERIVATIVE CHELATING AGENT AND PREPARATION PROCESS THEREOF” (PTT Global Chemical Public Company Limited, priority 2017, published 2020).

Like-named read-outs stand apart in the source and are kept apart here.

For data set [1] the following is noted: manganese (Mn^2+); previous disclosed chelating agent; cited from earlier work.
For data set [2] the following is noted: tin (Pb^2+); previous disclosed chelating agent; cited from earlier work.
For data set [3] the following is noted: magnesium (Mg^2+); previous disclosed chelating agent; cited from earlier work.
For data set [4] the following is noted: iron (Fe^2+); previous disclosed chelating agent; cited from earlier work.
The conditions of data set [5]: calcium (Ca^2+); previous disclosed chelating agent; cited from earlier work.
The conditions of data set [6]: nickel (Ni^2+); previous disclosed chelating agent; cited from earlier work.
For data set [7] the following is noted: zinc (Zn^2+); previous disclosed chelating agent; cited from earlier work.
For data set [8] the following is noted: cobolt (Co^2+); previous disclosed chelating agent; cited from earlier work.
The conditions of data set [9]: barium (Ba^2+); previous disclosed chelating agent; cited from earlier work.
For data set [10] the following is noted: cadmium (Cd^2+); previous disclosed chelating agent; cited from earlier work.
The conditions of data set [11]: strontium (Sr^2+); previous disclosed chelating agent; cited from earlier work.
The conditions of data set [12]: aluminium (Al^3+); previous disclosed chelating agent; cited from earlier work.
For data set [13] the following is noted: mercury (Hg^2+); previous disclosed chelating agent; cited from earlier work.
For data set [14] the following is noted: iron (Fe^3+); previous disclosed chelating agent; cited from earlier work.
For data set [15] the following is noted: copper (Cu2+); previous disclosed chelating agent; cited from earlier work.

Turning to `O=C(O)CN(CCN(CC(=O)O)CC(=O)O)CC(=O)O` [EDTA, ethylenediamineteraacetic acid], the stability constant in data set [1] is listed as 13.9; in data set [2], 18.0; in [3], 8.8; in [4], 14.3; in [5], 10.7; in data set [6] it was 18.4. Also, the stability constant in [7] is reported as 16.5; in data set [8], 16.5; in [9] it was 7.9; in [10], 16.5; in [11], 8.7; in data set [12] it was 16.4. The stability constant is given as 21.5 in data set [13], 25.1 in [14] and 18.8 in data set [15].
On to `O=C(O)CN(CC(=O)O)CC(=O)O` [NTA, nitrilotriacetic acid], for which the stability constant in data set [1] is on record as 7.5; in data set [2] it was 11.5; in [3], 5.5; in data set [4], 8.9; in [5], 6.4; in [6] it was 11.5. For the same molecule, the stability constant was 10.7 in data set [7]; 10.4 in data set [8]; 4.8 in [9]; 9.8 in [10]; 5.0 in data set [11]; 11.4 in data set [12]. Moreover, the values for the stability constant in data set [13], in data set [14] and in data set [15] were 14.3, 15.9 and 13.0, respectively.
In the case of `O=C(O)CC(NC(CC(=O)O)C(=O)O)C(=O)O` (stereo not shown) [IDS, iminodisuccinic acid], the stability constant in data set [1] is given as 7.7; in data set [2], 11.0; in data set [3], 6.1; in data set [4] it was 8.2; in data set [5] it was 5.2; in data set [6] it was 12.2. Besides, the stability constant in data set [7] is 10.8; in data set [8], 10.5; in data set [9], 2.1; in data set [10], 8.4; in [12], 14.1; in data set [13], 14.9. Also, the stability constant is on record as 15.2 in data set [14] and 13.1 in [15].
As for `O=C(O)CN(CCO)CC(=O)O` [EDG, ethanol diglycine], the stability constant in [1] was 10.0; in [2], 13.6; in data set [3], 6.2; in [4], 13.4; in data set [5], 4.7; in [6] it was 18.2. The stability constant in data set [7] is on record as 15.2; in [8], 8.0; in data set [9] it was 3.4; in data set [10], 7.4; in [11] it was 5.2; in [12], 7.7. Further, the stability constant in [13] was 19.8; in [14] it was 21.6; in data set [15] it was 11.8.
In the case of `O=C(O)CC[C@@H](C(=O)O)N(CC(=O)O)CC(=O)O` [GLDA, glutamic acid N,N-diacetic acid], the stability constant in data set [1] was 7.6; in [2], 10.5; in [3] it was 5.2; in data set [4] it was 8.7; in [5], 5.9; in data set [6], 10.9. Moreover, the stability constant in data set [7] is on record as 10.0; in [8] it was 10.0; in data set [9] it was 3.5; in data set [10] it was 9.1; in data set [11], 4.1; in data set [12] it was 12.2. The figures for the stability constant in data set [13], in data set [14] and in data set [15] were 14.3, 11.7 and 13.1, respectively.
Take `O=C(O)CC(OCCN(CCOC(CC(=O)O)C(=O)O)[C@@H](CC(=O)O)C(=O)O)C(=O)O` (stereo partly shown) [BCA6]: the stability constant in [1] is 9.28; in data set [2], 10.82; in data set [3], 5.98; in data set [5] it was 7.71; in data set [7], 11.34; in data set [9] it was 6.1. Besides, the stability constant in data set [10] is 11.09; in data set [12], 6.14; in data set [13], 14.85; in [14], 17.3; in data set [15], 13.08.
